Assay results: EP2792359A1, “Treatment of L-DOPA-induced dyskinesia with OPC-14523 or OPC-34712” (Merz Pharma GmbH & Co. KGaA, priority 2013, dated 2014)

What was measured:
6-OHDA-lesioned rats = test: L-DOPA induced dyskinesia (AIM scores) in the 6-OHDA-lesioned rat model of Parkinson's disease; format: in vivo, Sprague Dawley rats; conditions: for reduction of LID: comparators, data not shown, dose not given
5-HT1A = molecular target: T1, 5-HT1A (Homo sapiens, UniProt P08908); test: 5-HT1A cAMP HTRF assay (agonist test, Euroscreen FAST-0500C); format: cell-based
T1 construct: host or cells: CHO-K1
T1 sequence (P08908 1-422): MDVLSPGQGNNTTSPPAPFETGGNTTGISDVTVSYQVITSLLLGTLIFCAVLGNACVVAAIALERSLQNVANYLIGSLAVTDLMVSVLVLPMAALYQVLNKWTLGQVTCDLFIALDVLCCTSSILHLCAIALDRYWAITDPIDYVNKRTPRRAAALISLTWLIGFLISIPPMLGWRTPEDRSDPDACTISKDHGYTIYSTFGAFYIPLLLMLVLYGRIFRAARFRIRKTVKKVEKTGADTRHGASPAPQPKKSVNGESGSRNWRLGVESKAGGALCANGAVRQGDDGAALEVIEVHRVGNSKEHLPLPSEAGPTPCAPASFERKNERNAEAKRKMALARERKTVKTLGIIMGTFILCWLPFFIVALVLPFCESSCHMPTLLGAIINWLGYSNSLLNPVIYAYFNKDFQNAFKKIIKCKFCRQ
Procedure: (§1) A. In vitro 5-HT1A/B Activity Measurements: 5-HT1A/B cAMP HTRF assay (performed at Euroscreen, order no.: 5-HT1A:FAST-0500C, 5-HT1B: FAST-0501 C)
(§2) CHO-K1 cells expressing each human recombinant receptor (see Table 1) grown prior to the test in media without antibiotic were detached by gentle flushing with PBS-EDTA, recovered by centrifugation and resuspended in assay buffer. Dose response curves are performed in parallel with the reference compounds.
(§3) For agonist tests (96well): 12 µl of cells were mixed with 6 µl of the test compound at increasing concentrations and 6 µl of forskolin then incubated 30 min at room temperature. After addition of the lysis buffer and 1 hour incubation, cAMP concentrations were estimated, according to the manufacturer specification, with the HTRF kit (Cisbio).
Assay buffer consisted of: 5 mM KCI, 1.25 mM MgSO4, 124 mM NaCl, 25 mM HEPES, 13.3 mM Glucose, 1.25 mM KH2PO4, 1.45 mM CaCl2, and 0.5 g/I BSA. PBS-EDTA contained 137 mM NaCl, 2.7 mM KCI, 10 mM Na2HPO4, 2 mM KH2PO4 and 5 mM EDTA. […]
(§4) Dose-response data from test compounds were analyzed with XLfit (IDBS) software using nonlinear regression applied to a sigmoidal dose-response model (4 Parameter Fit).
(§5) Agonist activity of test compounds is expressed as a percentage of the activity of the reference agonist at a saturating concentration.

5-HT1B = molecular target: T2, 5-HT1B (Homo sapiens, UniProt P28222); test: 5-HT1B cAMP HTRF assay (agonist test, Euroscreen FAST-0501C); format: cell-based
T2 construct: host or cells: CHO-K1
T2 sequence (P28222 whole entry): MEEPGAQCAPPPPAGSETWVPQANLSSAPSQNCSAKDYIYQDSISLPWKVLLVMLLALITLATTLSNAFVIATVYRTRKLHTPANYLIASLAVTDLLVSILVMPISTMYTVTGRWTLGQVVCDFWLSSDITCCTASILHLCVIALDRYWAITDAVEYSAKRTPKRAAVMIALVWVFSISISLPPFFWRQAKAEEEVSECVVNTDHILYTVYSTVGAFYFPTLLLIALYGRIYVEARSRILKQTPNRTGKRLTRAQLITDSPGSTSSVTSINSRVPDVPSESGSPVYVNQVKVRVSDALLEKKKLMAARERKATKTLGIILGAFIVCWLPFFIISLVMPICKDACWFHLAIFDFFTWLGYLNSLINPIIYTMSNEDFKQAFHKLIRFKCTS
Procedure: as §1, §2, §3
Assay buffer consisted of: 5 mM KCI, 1.25 mM MgSO4, 124 mM NaCl, 25 mM HEPES, 13.3 mM Glucose, 1.25 mM KH2PO4, 1.45 mM CaCl2, and 0.5 g/I BSA. PBS-EDTA contained 137 mM NaCl, 2.7 mM KCI, 10 mM Na2HPO4, 2 mM KH2PO4 and 5 mM EDTA. Cell lines used were derived from CHO-K1 stably expressing the human receptors needed for the pharmacological testing (see Table 1). 5-Carboxamidotryptamine (5-CT) was used as reference agonist.
On each day of experimentation, reference compounds were tested at several concentrations in duplicate (n=2) to obtain a dose-response curve and an estimated EC50 value.
Reference values thus obtained for the test were compared to historical values obtained from the same receptor and used to validate the experimental session. […] For replicate determinations, the maximum variability tolerated in the test was of +/-20% around the average of the replicates.
as §4, §5

5-HT2B = molecular target: T3, 5-HT2B (Homo sapiens, UniProt P41595); test: 5-HT2B IP-One HTRF assay (Euroscreen FAST-0506I); format: cell-based
T3 construct: host or cells: CHO-K1
T3 sequence (P41595 whole entry): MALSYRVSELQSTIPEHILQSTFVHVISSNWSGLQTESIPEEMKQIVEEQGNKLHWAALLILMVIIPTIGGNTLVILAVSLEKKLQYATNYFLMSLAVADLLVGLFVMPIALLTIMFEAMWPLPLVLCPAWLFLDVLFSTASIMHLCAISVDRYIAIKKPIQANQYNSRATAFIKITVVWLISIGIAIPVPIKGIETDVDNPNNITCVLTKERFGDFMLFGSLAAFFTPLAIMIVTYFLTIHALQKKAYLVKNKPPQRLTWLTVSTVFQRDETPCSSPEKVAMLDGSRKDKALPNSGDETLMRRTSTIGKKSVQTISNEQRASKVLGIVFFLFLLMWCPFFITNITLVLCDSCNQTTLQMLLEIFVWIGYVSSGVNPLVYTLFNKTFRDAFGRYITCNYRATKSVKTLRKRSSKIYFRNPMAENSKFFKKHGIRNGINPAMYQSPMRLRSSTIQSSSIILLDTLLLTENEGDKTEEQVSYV
Procedure: B. 5-HT2B assay (performed at Euroscreen, order no.: FAST-0506I):
The 5-HT2B [00136] IP-One HTRF assay was conducted with recombinant cell lines, receptor accession numbers, cellular background and reference compounds are shown in Table 1.
Cells expressing human recombinant 5-HT2B (FAST-506I) grown to mid-log phase in culture media without antibiotics will be detached with PBS-EDTA, centrifuged and resuspended in medium without antibiotics buffer. 20,000 cells will be distributed in a 96 well plate and incubated overnight at 37°C with 5% CO2.
For agonist testing, the medium will be removed and 20 µl of assay buffer plus 20 µl of test compound or reference agonist will be added in each well. The plate will be incubated for 60 min at 37°C with 5% CO2.
For antagonist testing, 20 µl of test compound or reference antagonist is added and the plate is incubated for 15 min. at 37°C in a humidified atmosphere of 95% air with 5% CO2, then 20 µl of reference agonist at a final concentration corresponding to the historical EC80 is added. […]
IP1-D2 reagent and anti-IP1 cryptate reagents will be then dispensed in the wells and DeltaF percentage values will be then calculated following the manufacturer (CisBio) recommendations. […]
as §4

[1] = cited from earlier work
MAO-A = molecular target: T4, MAO-A (Homo sapiens, UniProt P21397); conditions: cited from earlier work
T4 sequence (P21397 1-527): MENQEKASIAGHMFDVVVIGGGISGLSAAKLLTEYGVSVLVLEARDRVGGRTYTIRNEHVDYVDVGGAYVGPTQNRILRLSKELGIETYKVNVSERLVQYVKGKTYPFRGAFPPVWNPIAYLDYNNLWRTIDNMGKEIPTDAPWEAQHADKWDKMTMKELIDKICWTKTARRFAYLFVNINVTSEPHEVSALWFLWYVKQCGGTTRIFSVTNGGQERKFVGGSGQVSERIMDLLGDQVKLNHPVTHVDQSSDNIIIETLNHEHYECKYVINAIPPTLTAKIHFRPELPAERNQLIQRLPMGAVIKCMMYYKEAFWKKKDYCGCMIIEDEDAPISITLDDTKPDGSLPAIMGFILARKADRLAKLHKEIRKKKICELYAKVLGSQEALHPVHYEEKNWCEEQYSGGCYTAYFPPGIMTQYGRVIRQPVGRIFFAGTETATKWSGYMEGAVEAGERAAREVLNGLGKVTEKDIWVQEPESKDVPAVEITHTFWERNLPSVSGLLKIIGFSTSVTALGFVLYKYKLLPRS

MAO-B = molecular target: T5, MAO-B (Homo sapiens, UniProt P27338); conditions: cited from earlier work
T5 sequence (P27338 1-520): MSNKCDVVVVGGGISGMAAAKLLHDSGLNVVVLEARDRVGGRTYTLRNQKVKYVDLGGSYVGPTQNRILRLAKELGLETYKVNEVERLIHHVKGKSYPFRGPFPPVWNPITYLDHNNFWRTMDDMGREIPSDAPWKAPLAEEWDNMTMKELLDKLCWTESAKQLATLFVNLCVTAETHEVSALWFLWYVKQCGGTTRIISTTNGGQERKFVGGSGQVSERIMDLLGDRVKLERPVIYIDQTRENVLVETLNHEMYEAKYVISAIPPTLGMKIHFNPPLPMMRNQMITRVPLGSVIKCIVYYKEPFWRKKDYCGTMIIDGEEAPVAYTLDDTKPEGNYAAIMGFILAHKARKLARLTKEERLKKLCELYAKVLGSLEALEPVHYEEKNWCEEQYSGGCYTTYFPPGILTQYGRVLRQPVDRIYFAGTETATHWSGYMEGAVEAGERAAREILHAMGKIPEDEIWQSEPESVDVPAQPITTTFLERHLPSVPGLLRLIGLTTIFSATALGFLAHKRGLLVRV

[2] = molecular target: T6, Muscarinic acetylcholine receptors M1 (Homo sapiens, UniProt P11229); conditions: cited from earlier work
T6 sequence (P11229 1-460): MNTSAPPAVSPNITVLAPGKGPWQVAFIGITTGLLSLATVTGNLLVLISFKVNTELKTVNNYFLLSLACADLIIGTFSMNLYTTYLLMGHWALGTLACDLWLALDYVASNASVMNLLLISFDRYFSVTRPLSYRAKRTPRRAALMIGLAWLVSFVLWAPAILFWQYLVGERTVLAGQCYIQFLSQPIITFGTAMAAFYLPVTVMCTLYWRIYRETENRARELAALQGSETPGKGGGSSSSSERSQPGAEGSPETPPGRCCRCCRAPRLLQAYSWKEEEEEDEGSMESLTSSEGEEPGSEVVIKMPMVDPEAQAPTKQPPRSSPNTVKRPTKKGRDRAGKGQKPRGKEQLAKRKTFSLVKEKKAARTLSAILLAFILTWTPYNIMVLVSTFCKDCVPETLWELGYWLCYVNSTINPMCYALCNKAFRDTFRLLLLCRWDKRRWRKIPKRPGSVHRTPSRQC

[3] = molecular target: T7, Muscarinic acetylcholine receptors M2 (Homo sapiens, UniProt P08172); conditions: cited from earlier work
T7 sequence (P08172 1-466): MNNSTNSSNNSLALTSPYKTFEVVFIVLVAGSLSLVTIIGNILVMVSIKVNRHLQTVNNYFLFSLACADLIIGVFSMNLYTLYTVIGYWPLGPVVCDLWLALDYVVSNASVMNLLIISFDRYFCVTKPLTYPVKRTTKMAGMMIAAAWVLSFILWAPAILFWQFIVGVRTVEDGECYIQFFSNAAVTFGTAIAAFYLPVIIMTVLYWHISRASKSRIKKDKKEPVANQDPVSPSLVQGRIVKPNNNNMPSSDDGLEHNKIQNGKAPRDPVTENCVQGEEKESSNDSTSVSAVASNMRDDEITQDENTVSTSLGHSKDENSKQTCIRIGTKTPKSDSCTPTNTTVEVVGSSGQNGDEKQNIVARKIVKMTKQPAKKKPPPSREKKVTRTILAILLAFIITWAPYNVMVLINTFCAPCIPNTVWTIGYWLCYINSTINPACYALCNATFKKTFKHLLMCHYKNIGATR

[4] = molecular target: Muscarinic acetylcholine receptors M3 (Homo sapiens, UniProt P20309); conditions: cited from earlier work
Muscarinic acetylcholine receptors M3, sequence (P20309 whole entry): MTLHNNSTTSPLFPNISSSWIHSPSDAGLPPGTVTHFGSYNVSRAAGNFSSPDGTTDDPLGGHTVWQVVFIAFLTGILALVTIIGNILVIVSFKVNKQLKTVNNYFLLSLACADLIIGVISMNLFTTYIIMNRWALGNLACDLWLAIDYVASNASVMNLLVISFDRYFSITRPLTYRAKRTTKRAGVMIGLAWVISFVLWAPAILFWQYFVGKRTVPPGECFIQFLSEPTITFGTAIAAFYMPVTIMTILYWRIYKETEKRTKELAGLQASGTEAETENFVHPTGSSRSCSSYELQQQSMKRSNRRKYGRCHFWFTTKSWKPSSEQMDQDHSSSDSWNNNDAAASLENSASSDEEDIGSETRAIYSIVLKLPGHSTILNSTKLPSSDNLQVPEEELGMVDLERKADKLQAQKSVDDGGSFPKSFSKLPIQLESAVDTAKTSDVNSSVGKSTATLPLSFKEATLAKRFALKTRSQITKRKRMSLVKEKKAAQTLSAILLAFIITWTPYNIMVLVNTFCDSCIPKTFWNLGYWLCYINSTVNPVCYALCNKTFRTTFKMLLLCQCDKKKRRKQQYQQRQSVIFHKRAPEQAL

NMDA receptor = conditions: cited from earlier work

For NC12CC3CC(CC(C3)C1)C2 [Amantadine], the “reduction of LID” value (6-OHDA-lesioned rats) was -25%.
In the case of c1cc2c(c(N3CCNCC3)c1)OCCO2 [Eltoprazine], the “reduction of LID” value (6-OHDA-lesioned rats) is reported as -60%.
With COc1cccc2c1CCC(=O)N2CCCN1CCN(c2cccc(Cl)c2)CC1 [OPC-14523, 1-[3-[4-(3-Chlorophenyl)piperazin-1-yl]propyl]-5-methoxy-1,2,3,4-tetrahydroquinolin-2-one] the EC50 (5-HT1A) was 26 nM, the Emax (5-HT1A; 0.5 h, CHO-K1 cells, human recombinant receptor, percentage of the activity of reference agonist 5-CT at saturating concentration, read-out: partial agonism, efficacy at 5-HT1A) was roughly 60% and the Emax (5-HT1B; 0.5 h, CHO-K1 cells, human recombinant receptor, percentage of the activity of reference agonist 5-CT at saturating concentration, read-out: partial agonism, efficacy at 5-HT1B) was roughly 60%. The EC50 (5-HT1B; CHO-K1 cells, human recombinant receptor, cAMP with forskolin, read-out: partial agonism at 5-HT1B (potency)) was 7 nM, the “action at the 5-HT1B receptor” value (5-HT1B; human recombinant cell lines) was “partial agonist” and the IC50 (5-HT2B) was 160 nM. The “effect on LID (AIM scores)” value (6-OHDA-lesioned rats; 10 mg/kg p.o., 10 min before L-DOPA/benserazide 6/15 mg/kg i.p.) was “strongly reduced LID”, the “adverse events in Phase 1 studies” value [1] was “no adverse events” and the “activity at MAO-A” value (MAO-A) was “inactive”. For the same compound, the “activity at MAO-B” value (MAO-B) was “inactive”, the “activity at Muscarinic acetylcholine receptor M1” value [2] was “inactive” and the “activity at Muscarinic acetylcholine receptor M2” value [3] was “inactive”. The “activity at Muscarinic acetylcholine receptor M3” value [4] was “inactive” and the “activity at NMDA receptor” value (NMDA receptor) was “inactive”.
